Reference: patent publication US12351570B2 (MERCK PATENT GMBH, priority 2018, dated 2025)

Test system: MDA-MB-231 cells
Assay: Extracellular lactate production inhibition after 4 h, MDA-MB-231
Details: Homo sapiens, MDA-MB-231

Row | IC50 [nM] | SMILES
1 | 1000 to 100000 | COc1ccc(S(=O)(=O)Nc2ccccc2C#Cc2ccc(C(=O)O)nc2)c(OC)c1 [Compound 299, 5-{2-[2-(2,4-dimethoxybenzenesulfon-amido)phenyl]ethynyl}pyridine-2-carboxylic acid]
2 | 100 to 1000 | CCOc1ccc(S(=O)(=O)Nc2ccccc2C#Cc2ccc(C(=O)O)nc2)cc1NC(C)=O [Compound 300, 5-{2-[2-(3-acetamido-4-ethoxy-benzenesulfonamido)phenyl]ethynyl}-pyridine-2-carboxylic acid]
3 | 100 to 1000 | O=C(O)c1ccc(C#Cc2ccccc2NS(=O)(=O)c2ccc3c(c2)oc2ccccc23)cn1 [Compound 301, 5-[2-(2-{8-oxatricyclo[7.4.0.0^2,7]trideca-1(9),2(7),3,5,10,12-hexaene-5-sulfonamido}phenyl)ethynyl]pyridine-2-carboxylic acid]
4 | 10 to 100 | O=C(O)c1ccc(C#Cc2ccccc2NS(=O)(=O)c2c(Cl)ccc3c(Cl)ccnc23)cn1 [Compound 302, 5-{2-[2-(4,7-dichloroquinoline-8-sulfonamido)phenyl]ethynyl}pyridine-2-carboxylic acid]
5 | 100 to 1000 | Cn1ccc2c(S(=O)(=O)Nc3ccccc3C#Cc3ccc(C(=O)O)nc3)cccc21 [Compound 303, 5-{2-[2-(1-methyl-1H-indole-4-sulfonamido)phenyl]ethynyl}pyridine-2-carboxylic acid]
6 | 1000 to 100000 | O=C(O)c1ccc(C#Cc2ccccc2NS(=O)(=O)c2ccc(Cl)s2)cn1 [Compound 304, 5-{2-[2-(5-chlorothiophene-2-sulfonamido)phenyl]ethynyl}pyridine-2-carboxylic acid]
7 | 10 to 100 | Cc1c(C)c(S(=O)(=O)Nc2ccccc2C#Cc2ccc(C(=O)O)nc2)c2ncccc2c1C [Compound 305, 5-{2-[2-(5,6,7-trimethylquinoline-8-sulfonamido)phenyl]ethynyl}pyridine-2-carboxylic acid]
8 | 10 to 100 | O=C(O)c1ccc(C#Cc2ccccc2NS(=O)(=O)c2c(Cl)cc(Cl)c3cccnc23)cn1 [Compound 306, 5-{2-[2-(5,7-dichloroquinoline-8-sulfonamido)phenyl]ethynyl}pyridine-2-carboxylic acid]
9 | 10 to 100 | Cc1cc(C#Cc2cc(F)ccc2NS(=O)(=O)c2c(C)ccc3cccnc23)cnc1C(=O)O [Compound 307, 5-{2-[5-fluoro-2-(7-methylquinoline-8-sulfonamido)phenyl]ethynyl}-3-methylpyridine-2-carboxylic acid]
10 | 100 to 1000 | Cc1cc(C#Cc2cc(F)ccc2NS(=O)(=O)c2ccc(-c3ccccc3)cc2)cnc1C(=O)O [Compound 308, 5-[2-(2-{[1,1′-biphenyl]-4-sulfonamido}-5-fluorophenyl)ethynyl]-3-methylpyridine-2-carboxylic acid]
11 | 100 to 1000 | Cc1cc(C#Cc2cc(F)ccc2NS(=O)(=O)c2ccc3c(c2)oc2ccccc23)cnc1C(=O)O [Compound 309, 5-[2-(5-fluoro-2-{8-oxatricyclo[7.4.0.0^2,7]trideca-1(9),2(7),3,5,10,12-hexaene-5-sulfonamido}phenyl)ethynyl]-3-methylpyridine-2-carboxylic acid]
12 | 10 to 100 | Cc1ccc2c(C)ccnc2c1S(=O)(=O)Nc1ccccc1C#Cc1ccc(C(=O)O)nc1 [Compound 310, 5-{2-[2-(4,7-dimethylquinoline-8-sulfonamido)phenyl]ethynyl}pyridine-2-carboxylic acid]
13 | 100 to 1000 | COc1ccc(S(=O)(=O)Nc2ccc(F)cc2C#Cc2cnc(C(=O)O)c(C)c2)c2ncccc12 [Compound 311, 5-{2-[5-fluoro-2-(5-methoxyquinoline-8-sulfonamido)phenyl]ethynyl}-3-methylpyridine-2-carboxylic acid]
14 | 1000 to 100000 | COC(=O)c1ncc(C#Cc2cc(F)ccc2NS(=O)(=O)c2c(C)ccc3cccnc23)cc1C [Compound 312, methyl 5-{2-[5-fluoro-2-(7-methylquinoline-8-sulfonamido)phenyl]ethynyl}-3-methylpyridine-2-carboxylate]
